From patent publication US7144901B2, “Oxadiazole derivatives and drugs containing these derivatives as the active ingredient” (ONO Pharmaceutical Co.,Ltd., priority 1999, dated 2006)
Values belong to the compound of their own block, whether it stands above or below them.

Assays:
Type in all cases: biochemical
cathepsin L = cathepsin L (Homo sapiens, UniProt P07711); assay: Measurement of cathepsin L inhibitory activity
Description: (iv) Measurement of Cathepsin L Inhibitory Activity
5 μL of Synthesized substrate (carbobenzoxy-L-phenylalanyl-L-arguine-4-methyl-chromanyl-7-amide or L-prolyl-L-phenylalanyl-L-arguinine-4-methyl-chromanyl-7-amide) solution and 5 μL of cysteine protease inhibitor solution of several concentrations, 80 μL of cathepsin L enzyme reaction buffer (400 mmol/L acetic acid, 4 mmol/L EDTA, 8 mmol/L DTT were mixed to adjust to pH 5.5) and 10 μL of cathepsin L enzyme solution were mixed and the increase of fluorescence intensity was measured (λex (excitation wavelength)=355 nm, λem (fluorescence wavelength)=460 nm) when reacted at 37° C.

cathepsin B = cathepsin B (Homo sapiens, UniProt P07858); assay: Measurement of cathepsin B inhibitory activity
Description: (ii) Measurement of Cathepsin B Inhibitory Activity
10 μL of Synthesized substrate (carbobenzoxy-L-arginyl-L-arginine-4-methyl-chromanyl-7-amide or carbobenzoxy-L-phenylalanyl-L-arginine-4-methyl-chromanyl-7-amide) solution of several concentrations, 10 μL of cysteine protease inhibitor solution of several concentrations, 70 μL of cathepsin B enzyme reaction buffer (mixture of 400 mmol/L in acetic acid, 4 mmol/L EDTA, 8 mmol/L DDT to adjust to pH 5.5) and 10 μL of cathepsin B enzyme solution were mixed and the increase of fluorescence intensity was measured (λex (excitation wavelength)=355 nm, λem (fluorescence wavelength)=460 nm) when reacted at 37° C.

cathepsin S = cathepsin S (Homo sapiens, UniProt P25774); assay: Measurement of cathepsin S inhibitory activity
cathepsin S, sequence (P25774 115-331, species assumed): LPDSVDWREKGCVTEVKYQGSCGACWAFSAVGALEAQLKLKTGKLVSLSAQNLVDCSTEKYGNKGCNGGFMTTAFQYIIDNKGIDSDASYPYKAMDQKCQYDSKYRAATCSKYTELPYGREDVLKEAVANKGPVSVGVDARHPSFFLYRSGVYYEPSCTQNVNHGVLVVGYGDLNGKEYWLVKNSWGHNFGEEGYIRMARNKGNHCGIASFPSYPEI
Description: (iii) Measurement of Cathepsin S Inhibitory Activity
10 μL of synthesized substrate (carbobenzoxy-L-leucyl-L-leucyl-L-arguinine-4-methyl-chromanyl-7-amide) solution and 5 μL of cysteine protease inhibitor solution of several concentrations, 75 μL of cathepsin S enzyme reaction buffer (100 mmol/L of sodium phosphate, 2 mmol/L of EDTA, 2 mmol/L of DTT were mixed to adjust to pH 6.5) and 10 μL of cathepsin S enzyme solution were mixed and the increase of fluorescence intensity was measured (λex (excitation wavelength)=355 nm, λem (fluorescence wavelength)=460 nm) when reacted at 37° C.

cathepsin K = target: T1, cathepsin K (Homo sapiens, UniProt P43235); assay: Measurement of cathepsin K inhibitory activity; details: Dixon plot, fluorogenic substrate, pH 5.5, 37° C.
T1 sequence (P43235 115-329): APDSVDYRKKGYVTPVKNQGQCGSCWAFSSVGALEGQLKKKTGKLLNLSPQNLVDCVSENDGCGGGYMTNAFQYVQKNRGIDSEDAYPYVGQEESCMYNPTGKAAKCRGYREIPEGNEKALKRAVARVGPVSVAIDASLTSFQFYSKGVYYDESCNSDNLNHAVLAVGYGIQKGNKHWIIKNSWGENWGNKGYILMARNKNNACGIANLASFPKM
Description: (i) Measurement of Cathepsin K Inhibitory Activity
65 μL of Cathepsin K enzyme reaction buffer (50 mmol/L of 2-(N-morpholino)ethanesulfonate, 2 mmol/L of ethylenediamine tetraacetate (EDTA) and 4 mmol/L of dithiothreitol (DTT) were mixed to adjust to pH 5.5), 5 μL of cysteine protease inhibitor solution of several concentrations, 20 μL of synthesized substrate (t-butyloxycarbonyl-L-alanyl-glycyl-L-prolyl-L-arginine-4-methyl-chromanyl-7-amide) solution of several concentrations and 10 μL of cathepsin K enzyme solution were mixed and the increase of fluorescence intensity when reacted at 37° C. was measured (λex (excitation wavelength)=355 nm, λem (fluorescence wavelength)=460 nm). As to the substrate and the compound of the present invention, enzyme reactions were carried out in combination of several appropriate concentrations and Dixon plotting was prepared, to define the absolute value of X-coordinate of the intersection point of the graph as Ki value.

cathepsin L, sequence (P07711 114-333, species assumed): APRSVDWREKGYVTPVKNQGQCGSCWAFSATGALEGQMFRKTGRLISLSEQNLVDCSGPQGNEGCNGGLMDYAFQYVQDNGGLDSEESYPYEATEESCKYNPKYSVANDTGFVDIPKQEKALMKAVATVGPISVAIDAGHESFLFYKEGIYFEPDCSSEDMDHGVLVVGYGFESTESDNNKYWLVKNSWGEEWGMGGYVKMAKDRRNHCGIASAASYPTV

inhibition at 1 µM (cathepsin L): 92%
Compound: CC(C)C[C@H](NC(=O)OCc1ccccc1)C(=O)N[C@@H](CC(C)C)C(=O)c1nn(CC2CCC2)c(=O)o1 [1 (21), (2S)-N-[(2S)-1-(3-cyclobutylmethyl-2-oxo-1,3,4-oxadiazolin-5-yl)-4-methyl-1-oxo-2-pentyl]-2-benzyloxycarbonylamino-4-methylpentanamide]

inhibition at 1 µM (cathepsin B): 100%
Compound: CC(C)C[C@H](NC(=O)[C@@H]1CCCC[C@@H]1NC(=O)c1ccccc1)C(=O)c1nnc(SCc2ccccc2)o1 [3 (5), 1-[(1R,2S)-2-benzoylaminocyclohexyl]-N-[(2S)-1-(5-benzylthio-1,3,4-oxadiazol-2-yl)-4-methyl-1-oxo-2-pentyl]carboxamide]

inhibition at 1 µM (cathepsin S): 100%
Compound: CSc1nnc(C(=O)[C@H](CCc2ccccc2)NC(=O)[C@@H]2CCCC[C@@H]2NC(=O)c2ccccc2)o1 [3 (7), 1-[(1R,2S)-2-benzoylaminocyclohexyl]-N-[(2S)-1-(5-methylthio-1,3,4-oxadiazol-2-yl)-1-oxo-4-phenyl-2-butyl]carboxamide]

Ki (cathepsin K): 1.3 nM
Compound: CC(C)C[C@H](NC(=O)OCc1ccccc1)C(=O)N[C@@H](CC(C)C)C(=O)c1nnc(SC(C)C)o1 [example 3]
